This passage reports TGI and GI50 results from PubChem BioAssay (NCI).

SMILES strings stand for the structures. Where “and” joins values, the source holds several entries; their conditions need not be identical. Identical values can stand only once.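 Step 1: Grow cells in 96-well plates. Step 2: Expose to compound for 48 hours at 5 concentrations. Step 3: Interpolate endpoints linearly; if unreached, use highest concentration. At the GI50, growth is halved. TGI denotes the concentration required for complete inhibition of growth.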 Bounds are passed on as bounds.

What all share (assay): NCI tumour cell line growth inhibition, 48 h
Assay [1] deals with MDA-N.
The test system of assay [2] is M19-MEL melanoma.
Assay [3] has as its system KM20L2 colon.
In assay [4] the test system is HOP-18 NSCLC.
Assay [5] relates to RXF-631 renal.
In assay [6] the test system is LXFL 529 NSCLC.
For assay [7], the system named is SNB-78 CNS.
The test system of assay [8] is XF 498 CNS.
In assay [9] the test system is DLD-1 colon.
For assay [10], the system named is P388/ADR leukemia.
Assay [11] relates to SN12K1 renal.

Turning to `CC[C@@]1(O)C(=O)OCc2c1cc1n(c2=O)Cc2c-1nc1cc3c(cc1c2C)OCO3`, the TGI in assay [1] is greater than 100 µM.

For `CC[C@@H]1C[C@H]2CC3c4[nH]c5ccc(O)cc5c4CCN(C2)C31`, the TGI in assay [2], in [3], in [4], in [5], in assay [6] and in [7] was greater than 100 µM in each case. The compound further showed a TGI in [8] greater than 100 µM.

For `Cc1nn(-c2nc3ccccc3s2)c2c1C(=O)c1ccccc1-2`, the TGI in [9], in assay [2], in assay [3], in [4], in [6] and in assay [7] was greater than 100 µM each time.

On to `CCCCCCCCCCCCCCCCOP(=O)(O)OP(=O)(O)OCC1OC(n2ccc(N)nc2=O)C(O)C1O` (stereo not drawn), for which, in [1], the TGI was greater than 100 µM.

Take `COc1ccc(CNc2nc3cc(N)cc(N)c3nc2-c2ccccc2)cc1`: in assay [1], the GI50 was 14.2 µM and the TGI is 27.7 µM.

In the case of `COc1cc(O)c2c(c1)C(=O)c1cc3c(c(O)c1C2=O)C(OC1OC(C)C(O)C(O)C1OC)C(OC)C(C)(O)C3=O` (stereo not drawn), the TGI in assay [9] came to 11.6 µM; in [2], 1.83 µM; in assay [3] it was 6 µM; in assay [4], 15.4 µM; in assay [10], 59.6 µM; in assay [11] it was 7.14 µM. The TGI in assay [7] is 16.1 µM; in assay [8] it was 7.13 µM.

`COc1ccc(OC)c(-c2cc(=O)c3c(OC)c(OC)c(OC)c(OC)c3o2)c1` returned a TGI in assay [1] greater than 100 µM.

In the case of `CCOC(=O)C(C)(C)C(O)C(C)C` (stereo not drawn), the TGI in assay [1] was greater than 100 µM.

Take `CN(C)CCOC(c1ccccc1)c1ccccc1`: in assay [1], the GI50 is 29.4 µM; the TGI is 50.1 µM and > 100 µM.

In the case of `O=C(NC1C2CC3CC(C2)CC1C3)c1cc(/C=C/c2ccccc2)[nH]c(=S)n1` (stereo not drawn), the TGI in assay [9], in assay [2], in assay [3], in assay [5], in [6] and in assay [7] was greater than 100 µM throughout. This compound showed a TGI in assay [8] greater than 100 µM.

As to `O=C(COC(=O)c1cccc2c(=O)c3ccccc3[nH]c12)Nc1ccccc1`, the TGI in assay [9] is greater than 100 µM; in assay [2], greater than 100 µM; in assay [3], greater than 100 µM; in assay [4] it was greater than 100 µM; in [5], 99 µM; in assay [6] it was greater than 100 µM. Also, the TGI in [8] was 74.4 µM.

Regarding `CC(=O)C1(N=Nc2ccc(S(N)(=O)=O)cc2)CCOC1=O` (stereo not drawn), the TGI in assay [1] was greater than 100 µM.

In turn, `S=c1nc(Cl)cc2[nH]c(Cl)cn12` displayed a TGI in [1] of 4.56 µM.

Turning to `COc1ccc(OC(C(=O)O)c2ccccc2)c2c1CCCC2=O` (stereo not drawn), the TGI in assay [9], in assay [2], in [3], in assay [4], in assay [5] and in assay [6] was greater than 100 µM throughout. In addition, the TGI in assay [7] and in assay [8] was greater than 100 µM in each case.

In the case of `NCCN1C(=O)C2C3c4ccccc4C(c4ccccc43)C2C1=O` (stereo not drawn), the TGI in assay [9], in assay [2], in assay [3], in [4], in assay [6] and in assay [7] was greater than 100 µM throughout.

Regarding `Cc1nn(C)cc1P(=S)(c1ccccc1)c1ccccc1`, the TGI in [9], in [2], in [3], in assay [4], in [6] and in [7] was greater than 100 µM in each case. In assay [8], this compound showed a TGI greater than 100 µM.

`N#CS.N=C=S.N=C=S.[Cu+2].[NH2-].[NH2-].[NH2-].[NH2-].c1ccc2ncccc2c1`: in assay [1], the GI50 is greater than 100 µM and the TGI was greater than 100 µM.

On to `CC(C)(C)OC(=O)NC(CO)c1cccc(OCc2ccccc2)c1` (stereo not drawn), for which the TGI in assay [9], in [2], in assay [3], in assay [4], in assay [6] and in assay [7] was greater than 100 µM in each case. For the same compound, in assay [8], the TGI is greater than 100 µM.

Take `O=C(NCC(O)CNC(=O)C(F)(F)F)C(F)(F)F`: the TGI in [9], in [2], in [3], in assay [4], in assay [6] and in [7] was greater than 100 µM each time. Besides, in assay [8], the TGI is greater than 100 µM.

In the case of `O=c1c2ccccc2c2ccccc2c(=O)n1Cc1ccc2c(c1)OCO2`, in assay [1], the TGI worked out at 28.7 µM.

`NC(N)=NS(=O)(=O)c1ccc(Nc2c3ccccc3nc3c(C(=O)Nc4ccc(S(N)(=O)=O)cc4)ccc(Cl)c23)cc1`: the TGI in assay [9], in [2], in assay [3], in assay [4], in assay [5] and in [6] was greater than 100 µM each time. Moreover, the TGI in assay [7] and in [8] was greater than 100 µM throughout.

On to `N#C/C(=C/Sc1ccccc1)C(=O)O`, for which the TGI was greater than 100 µM in [9]; 74 µM in [2]; 91.2 µM in assay [3]; greater than 100 µM in assay [4]; greater than 100 µM in assay [6]; 59.5 µM in assay [7]. Further, the TGI in assay [8] was greater than 100 µM.

In the case of `N#CCC(=O)N/N=C(\C(=O)Nc1ccc(Cl)c(Cl)c1)C1CN(c2ccccc2)N=C1N` (stereo not drawn), the TGI in assay [9], in assay [2], in [3], in assay [4], in [6] and in [7] was greater than 100 µM throughout.

`O=c1oc(=O)c2oc3ccccc3oc1=2`: the TGI in [9], in [2], in assay [3], in assay [4], in [6] and in assay [8] was greater than 100 µM in each case.

Regarding `Clc1cc2n[se]nc2cc1Cl`, the TGI in [9], in assay [2], in assay [3], in [4], in assay [5] and in assay [6] was greater than 100 µM each time. The TGI in assay [7] and in assay [8] was greater than 100 µM throughout.

In the case of `CC1OC(OC2C(CO)OC(O[C@H]3CC[C@@]4(C)C(=CC[C@H]5[C@@H]6C[C@@H]7O[C@]8(CC[C@@H](C)CN8)[C@@H](C)[C@@H]7[C@@]6(C)CC[C@@H]54)C3)C(O)C2O)C(O)C(O)C1O` (stereo partly drawn), the TGI in assay [9], in assay [2], in assay [3], in [4], in assay [6] and in [7] was greater than 100 µM each time. Besides, the TGI in assay [8] is greater than 100 µM.

On to `CCOC(=O)/C(C#N)=C1/C(O)=C(C(=O)OC)C(C(=O)OC)=C1C(=O)OC`, for which the TGI in assay [9], in assay [2], in assay [3] and in assay [6] was greater than 100 µM each time.

On to `Cc1cc2c(c3oc(C4(C)OC4C4OC4C)cc(=O)c13)C(=O)c1c(O)c(C3CC(C)(N(C)C)C(O)C(C)O3)cc(C3CC(N(C)C)C(O)C(C)O3)c1C2=O` (stereo not drawn), for which the results for the GI50 in [9], in [7] and in [8] were 0.00017 µM, 0.000187 µM and 0.000187 µM, respectively. The TGI in assay [4] was 0.00334 µM; in assay [5], 0.123 µM; in [6] it was 0.0117 µM; in assay [1], 0.000228 µM; in [8] it was 0.00068 µM.

With `O=S(O)CCCSSc1ccccc1`, the TGI in assay [9], in [2], in assay [3], in assay [4], in [6] and in [7] was greater than 100 µM each time. Also, the TGI in [8] was greater than 100 µM.

As to `CNC(=O)c1cccc2c(Nc3ccc(NS(C)(=O)=O)cc3OC)c3cccc(C)c3nc12`, the TGI was 8.54 µM in assay [2]; 3.72 µM in assay [3]; 3.36 µM in assay [4]; 6.74 µM in assay [6]; 1.07 µM in [10]; 1.61 µM in assay [11]. Besides, the TGI in [8] was 3.25 µM.

`CCOc1ccccc1NC(=O)CCc1n[nH]c(=S)o1`: the TGI in assay [9], in assay [2], in assay [3], in [6], in assay [7] and in assay [8] was greater than 100 µM in each case.

In the case of `COc1ccc2c(c1OC)OCC(CN(C)C)C2=O` (stereo not drawn), the TGI in [1] came to 32.4 µM.

`O=C1CC(O)(c2ccccc2)C(c2ccccc2)=C1c1ccccc1` (stereo not drawn): the TGI was greater than 100 µM in assay [9]; 91.4 µM in assay [2]; greater than 100 µM in [3]; greater than 100 µM in [6]; greater than 100 µM in assay [7]; 73.5 µM in [8].

Regarding `CCOC(=O)c1ccc(NC(=O)SCCC(=O)O)cc1`, the TGI in assay [9], in [3], in [6] and in [7] was greater than 100 µM throughout.

Regarding `COC(=O)c1ccc(Cl)cc1NC(=O)C1CCCCC1`, the TGI in assay [2], in assay [3], in assay [6] and in [7] was greater than 100 µM throughout.

Take `CCC[CH2][Sn]1([CH2]CCC)[O]C(=O)c2ccc(C)cc2[O]1`: the GI50 in assay [9] is 0.658 µM; in assay [2] it was 0.322 µM; in assay [3], 1.21 µM; in [4] it was 1.01 µM; in [5], 0.138 µM; in assay [6], 0.158 µM. In addition, the GI50 in [7] was 0.526 µM. For the same compound, the TGI in [9] came out at 1.98 µM; in [2] it was 1.33 µM; in [3] it was 2.46 µM; in assay [4], 2.19 µM; in [5], 0.32 µM; in assay [6], 0.372 µM. In assay [7], this compound gave a TGI of 2.34 µM.

Take `OC1C2CCC1C1C3C=CC(C3)C21` (stereo not drawn): the TGI in [9], in [2], in assay [3], in assay [4], in assay [6] and in [7] was greater than 100 µM each time. This compound also showed a TGI in [8] greater than 100 µM.
